Results from PMC7407272, “Induction of Lysosome Membrane Permeabilization as a Therapeutic Strategy to Target Pancreatic Cancer Stem Cells” (Cancers, 2020).

Legend:
Experiment in all cases: KINOMEscan
Type in all cases: binding
Settings in all cases: read-out: % Ctrl
FLT3 = target: T1, FLT3 (Homo sapiens, UniProt P36888)
T1 construct: purchased DiscoveRx KINOMEscan

PHKG2 = target: T2, PHKG2 (Homo sapiens, UniProt P15735)
T2 construct: purchased DiscoveRx KINOMEscan

ABL1(Y253F)-P = target: T3, ABL1(Y253F)-P (Homo sapiens, UniProt P00519, Y253F)
T3 construct: purchased DiscoveRx KINOMEscan

FLT3(N841I) = target: T4, FLT3(N841I) (Homo sapiens, UniProt P36888, N841I)
T4 construct: purchased DiscoveRx KINOMEscan

FLT4 = target: T5, FLT4 (Homo sapiens, UniProt P35916)
T5 construct: purchased DiscoveRx KINOMEscan

ADCK3 = target: T6, ADCK3 (Homo sapiens, UniProt Q8NI60)
T6 construct: purchased DiscoveRx KINOMEscan

PIK3CD = target: T7, PIK3CD (Homo sapiens, UniProt O00329)
T7 construct: purchased DiscoveRx KINOMEscan

AKT1 = target: T8, AKT1 (Homo sapiens, UniProt P31749)
T8 construct: purchased DiscoveRx KINOMEscan

GRK7 = target: T9, GRK7 (Homo sapiens, UniProt Q8WTQ7)
T9 construct: purchased DiscoveRx KINOMEscan

ANKK1 = target: T10, ANKK1 (Homo sapiens, UniProt Q8NFD2)
T10 construct: purchased DiscoveRx KINOMEscan

PIP5K2B = target: T11, PIP5K2B (Homo sapiens, UniProt P78356)
T11 construct: purchased DiscoveRx KINOMEscan

ASK1 = target: T12, ASK1 (Homo sapiens, UniProt Q99683)
T12 construct: purchased DiscoveRx KINOMEscan

PKAC-alpha = target: T13, PKAC-alpha (Homo sapiens, UniProt P17612)
T13 construct: purchased DiscoveRx KINOMEscan

BIKE = target: T14, BIKE (Homo sapiens, UniProt Q9NSY1)
T14 construct: purchased DiscoveRx KINOMEscan

IKK-alpha = target: T15, IKK-alpha (Homo sapiens, UniProt O15111)
T15 construct: purchased DiscoveRx KINOMEscan

IKK-epsilon = target: T16, IKK-epsilon (Homo sapiens, UniProt Q14164)
T16 construct: purchased DiscoveRx KINOMEscan

BRSK1 = target: T17, BRSK1 (Homo sapiens, UniProt Q8TDC3)
T17 construct: purchased DiscoveRx KINOMEscan

ITK = target: T18, ITK (Homo sapiens, UniProt Q08881)
T18 construct: purchased DiscoveRx KINOMEscan

PRKD1 = target: T19, PRKD1 (Homo sapiens, UniProt Q15139)
T19 construct: purchased DiscoveRx KINOMEscan

CDC2L5 = target: T20, CDC2L5 (Homo sapiens, UniProt Q14004)
T20 construct: purchased DiscoveRx KINOMEscan
Procedure: (§1) The KINOMEscan ^TM screening platform employs an active site-directed competition binding assay to quantitatively measure interactions between test compound and 468 human kinases and disease relevant mutant variants. […] The assay was performed at DiscoveRx Corporation.

PRP4 = target: T21, PRP4 (Homo sapiens, UniProt Q13523)
T21 construct: purchased DiscoveRx KINOMEscan
Procedure: as §1

RET(M918T) = target: T22, RET(M918T) (Homo sapiens, UniProt P07949, M918T)
T22 construct: purchased DiscoveRx KINOMEscan

LIMK1 = target: T23, LIMK1 (Homo sapiens, UniProt P53667)
T23 construct: purchased DiscoveRx KINOMEscan

LIMK2 = target: T24, LIMK2 (Homo sapiens, UniProt P53671)
T24 construct: purchased DiscoveRx KINOMEscan

ROS1 = target: T25, ROS1 (Homo sapiens, UniProt P08922)
T25 construct: purchased DiscoveRx KINOMEscan

CDK7 = target: T26, CDK7 (Homo sapiens, UniProt P50613)
T26 construct: purchased DiscoveRx KINOMEscan

MAP3K3 = target: T27, MAP3K3 (Homo sapiens, UniProt Q99759)
T27 construct: purchased DiscoveRx KINOMEscan

CHEK2 = target: T28, CHEK2 (Homo sapiens, UniProt O96017)
T28 construct: purchased DiscoveRx KINOMEscan

MAP4K3 = target: T29, MAP4K3 (Homo sapiens, UniProt Q8IVH8)
T29 construct: purchased DiscoveRx KINOMEscan

SgK110 = target: T30, SgK110 (Homo sapiens, UniProt P0C264)
T30 construct: purchased DiscoveRx KINOMEscan

MELK = target: T31, MELK (Homo sapiens, UniProt Q14680)
T31 construct: purchased DiscoveRx KINOMEscan

DAPK1 = target: T32, DAPK1 (Homo sapiens, UniProt P53355)
T32 construct: purchased DiscoveRx KINOMEscan

MKNK1 = target: T33, MKNK1 (Homo sapiens, UniProt Q9BUB5)
T33 construct: purchased DiscoveRx KINOMEscan

DRAK2 = target: T34, DRAK2 (Homo sapiens, UniProt O94768)
T34 construct: purchased DiscoveRx KINOMEscan

TLK1 = target: T35, TLK1 (Homo sapiens, UniProt Q9UKI8)
T35 construct: purchased DiscoveRx KINOMEscan

EGFR(G719S) = target: T36, EGFR(G719S) (Homo sapiens, UniProt P00533, G719S)
T36 construct: purchased DiscoveRx KINOMEscan

TRKC = target: T37, TRKC (Homo sapiens, UniProt Q16288)
T37 construct: purchased DiscoveRx KINOMEscan

NDR1 = target: T38, NDR1 (Homo sapiens, UniProt Q15208)
T38 construct: purchased DiscoveRx KINOMEscan

EPHA2 = target: T39, EPHA2 (Homo sapiens, UniProt P29317)
T39 construct: purchased DiscoveRx KINOMEscan

NEK9 = target: T40, NEK9 (Homo sapiens, UniProt Q8TD19)
T40 construct: purchased DiscoveRx KINOMEscan

VEGFR2 = target: T41, VEGFR2 (Homo sapiens, UniProt P35968)
T41 construct: purchased DiscoveRx KINOMEscan

ERK1 = target: T42, ERK1 (Homo sapiens, UniProt P27361)
T42 construct: purchased DiscoveRx KINOMEscan

YANK2 = target: T43, YANK2 (Homo sapiens, UniProt Q9NY57)
T43 construct: purchased DiscoveRx KINOMEscan

PAK6 = target: T44, PAK6 (Homo sapiens, UniProt Q9NQU5)
T44 construct: purchased DiscoveRx KINOMEscan

T6 sequence (Q8NI60 163-647): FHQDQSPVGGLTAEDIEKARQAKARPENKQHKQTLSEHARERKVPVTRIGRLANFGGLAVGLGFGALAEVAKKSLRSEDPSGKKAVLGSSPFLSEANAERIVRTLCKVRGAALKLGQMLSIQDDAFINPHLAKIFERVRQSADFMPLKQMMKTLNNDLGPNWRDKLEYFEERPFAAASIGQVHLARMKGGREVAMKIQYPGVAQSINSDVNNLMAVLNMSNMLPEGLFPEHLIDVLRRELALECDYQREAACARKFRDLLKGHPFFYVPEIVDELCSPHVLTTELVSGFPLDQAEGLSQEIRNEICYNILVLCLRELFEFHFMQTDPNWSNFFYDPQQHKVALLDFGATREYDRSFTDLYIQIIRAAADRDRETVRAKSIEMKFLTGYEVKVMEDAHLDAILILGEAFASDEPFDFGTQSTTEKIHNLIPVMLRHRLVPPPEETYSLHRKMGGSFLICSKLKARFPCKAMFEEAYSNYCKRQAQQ
T31 sequence (Q14680 whole entry): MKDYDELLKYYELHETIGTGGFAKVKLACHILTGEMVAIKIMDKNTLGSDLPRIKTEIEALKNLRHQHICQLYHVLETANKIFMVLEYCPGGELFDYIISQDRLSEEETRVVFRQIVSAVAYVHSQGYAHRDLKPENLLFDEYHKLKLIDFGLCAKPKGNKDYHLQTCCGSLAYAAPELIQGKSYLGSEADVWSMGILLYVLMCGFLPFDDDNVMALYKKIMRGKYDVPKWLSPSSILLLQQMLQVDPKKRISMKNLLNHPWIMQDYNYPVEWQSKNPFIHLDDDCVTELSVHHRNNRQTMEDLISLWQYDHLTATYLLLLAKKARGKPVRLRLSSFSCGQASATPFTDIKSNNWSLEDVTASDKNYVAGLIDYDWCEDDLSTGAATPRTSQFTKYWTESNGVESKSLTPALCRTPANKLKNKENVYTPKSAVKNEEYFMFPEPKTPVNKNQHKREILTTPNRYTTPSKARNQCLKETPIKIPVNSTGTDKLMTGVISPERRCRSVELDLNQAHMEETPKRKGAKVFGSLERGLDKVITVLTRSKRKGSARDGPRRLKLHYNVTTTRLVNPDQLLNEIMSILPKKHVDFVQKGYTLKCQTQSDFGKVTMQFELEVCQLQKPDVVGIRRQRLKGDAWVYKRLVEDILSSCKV
T2 sequence (P15735 whole entry): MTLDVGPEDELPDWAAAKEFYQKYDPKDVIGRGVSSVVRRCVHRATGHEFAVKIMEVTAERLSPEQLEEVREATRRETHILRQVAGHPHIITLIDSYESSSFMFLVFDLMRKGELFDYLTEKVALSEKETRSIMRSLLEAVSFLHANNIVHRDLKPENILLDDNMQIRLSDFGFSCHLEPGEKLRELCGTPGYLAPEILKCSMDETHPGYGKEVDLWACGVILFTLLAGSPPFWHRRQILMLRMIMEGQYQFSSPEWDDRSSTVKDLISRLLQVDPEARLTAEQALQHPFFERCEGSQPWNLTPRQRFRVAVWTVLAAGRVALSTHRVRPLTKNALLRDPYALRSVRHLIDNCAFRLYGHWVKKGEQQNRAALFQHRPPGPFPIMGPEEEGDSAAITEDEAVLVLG
T22 sequence (P07949 29-1114 M918T): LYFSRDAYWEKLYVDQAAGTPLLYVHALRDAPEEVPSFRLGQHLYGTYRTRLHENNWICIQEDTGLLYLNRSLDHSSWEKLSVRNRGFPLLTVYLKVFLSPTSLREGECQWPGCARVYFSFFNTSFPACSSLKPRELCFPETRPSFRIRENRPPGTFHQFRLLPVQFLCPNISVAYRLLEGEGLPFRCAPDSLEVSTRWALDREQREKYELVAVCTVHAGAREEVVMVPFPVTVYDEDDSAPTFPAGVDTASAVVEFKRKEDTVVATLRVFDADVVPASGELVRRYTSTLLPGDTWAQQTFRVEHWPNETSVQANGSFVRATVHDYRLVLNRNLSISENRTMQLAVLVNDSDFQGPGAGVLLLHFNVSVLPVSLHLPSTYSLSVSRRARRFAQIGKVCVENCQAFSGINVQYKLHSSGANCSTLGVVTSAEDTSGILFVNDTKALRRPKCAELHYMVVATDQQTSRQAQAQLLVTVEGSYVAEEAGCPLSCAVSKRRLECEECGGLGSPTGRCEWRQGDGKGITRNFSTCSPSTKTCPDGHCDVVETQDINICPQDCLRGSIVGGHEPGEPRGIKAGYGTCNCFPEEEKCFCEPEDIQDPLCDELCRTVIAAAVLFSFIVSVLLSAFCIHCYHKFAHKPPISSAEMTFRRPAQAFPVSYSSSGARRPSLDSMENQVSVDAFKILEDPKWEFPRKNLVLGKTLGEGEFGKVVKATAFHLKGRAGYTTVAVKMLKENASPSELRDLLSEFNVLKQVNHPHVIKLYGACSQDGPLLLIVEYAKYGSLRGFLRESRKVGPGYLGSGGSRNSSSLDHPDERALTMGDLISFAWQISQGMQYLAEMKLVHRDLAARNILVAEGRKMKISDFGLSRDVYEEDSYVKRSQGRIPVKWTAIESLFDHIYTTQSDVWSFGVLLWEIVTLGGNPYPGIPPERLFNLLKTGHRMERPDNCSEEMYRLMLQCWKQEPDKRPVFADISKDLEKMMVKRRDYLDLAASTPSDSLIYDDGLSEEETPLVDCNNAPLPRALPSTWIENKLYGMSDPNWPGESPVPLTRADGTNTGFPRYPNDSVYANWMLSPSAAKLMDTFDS
T16 sequence (Q14164 whole entry): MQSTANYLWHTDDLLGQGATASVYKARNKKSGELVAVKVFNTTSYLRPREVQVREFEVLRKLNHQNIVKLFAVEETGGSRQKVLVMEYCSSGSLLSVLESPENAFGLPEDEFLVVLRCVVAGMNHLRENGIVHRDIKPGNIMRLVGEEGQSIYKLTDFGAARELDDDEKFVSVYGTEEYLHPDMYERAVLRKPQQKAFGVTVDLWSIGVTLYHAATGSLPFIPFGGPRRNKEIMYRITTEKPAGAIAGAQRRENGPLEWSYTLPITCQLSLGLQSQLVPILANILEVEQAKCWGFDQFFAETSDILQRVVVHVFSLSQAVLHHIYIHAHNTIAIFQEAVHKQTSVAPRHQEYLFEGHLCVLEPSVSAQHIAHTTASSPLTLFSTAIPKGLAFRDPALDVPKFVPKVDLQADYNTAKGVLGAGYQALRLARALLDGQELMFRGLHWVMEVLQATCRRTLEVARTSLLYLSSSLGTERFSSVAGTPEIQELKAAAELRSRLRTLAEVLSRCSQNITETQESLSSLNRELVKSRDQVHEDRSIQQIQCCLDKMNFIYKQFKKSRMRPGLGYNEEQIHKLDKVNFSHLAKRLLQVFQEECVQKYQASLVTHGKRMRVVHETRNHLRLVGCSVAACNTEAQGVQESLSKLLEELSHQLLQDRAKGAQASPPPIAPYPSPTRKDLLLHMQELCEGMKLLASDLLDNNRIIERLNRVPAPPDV
T26 sequence (P50613 whole entry): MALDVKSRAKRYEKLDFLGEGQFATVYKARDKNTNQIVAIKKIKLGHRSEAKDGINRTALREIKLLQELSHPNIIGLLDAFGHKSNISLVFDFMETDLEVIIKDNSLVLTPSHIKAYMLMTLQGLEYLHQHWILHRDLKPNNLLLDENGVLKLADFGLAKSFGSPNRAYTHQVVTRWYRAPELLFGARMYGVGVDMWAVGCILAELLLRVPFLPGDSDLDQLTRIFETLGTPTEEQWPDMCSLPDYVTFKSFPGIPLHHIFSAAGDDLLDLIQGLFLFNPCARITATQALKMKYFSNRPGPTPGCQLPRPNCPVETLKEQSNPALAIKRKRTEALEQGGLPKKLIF
T7 sequence (O00329 whole entry): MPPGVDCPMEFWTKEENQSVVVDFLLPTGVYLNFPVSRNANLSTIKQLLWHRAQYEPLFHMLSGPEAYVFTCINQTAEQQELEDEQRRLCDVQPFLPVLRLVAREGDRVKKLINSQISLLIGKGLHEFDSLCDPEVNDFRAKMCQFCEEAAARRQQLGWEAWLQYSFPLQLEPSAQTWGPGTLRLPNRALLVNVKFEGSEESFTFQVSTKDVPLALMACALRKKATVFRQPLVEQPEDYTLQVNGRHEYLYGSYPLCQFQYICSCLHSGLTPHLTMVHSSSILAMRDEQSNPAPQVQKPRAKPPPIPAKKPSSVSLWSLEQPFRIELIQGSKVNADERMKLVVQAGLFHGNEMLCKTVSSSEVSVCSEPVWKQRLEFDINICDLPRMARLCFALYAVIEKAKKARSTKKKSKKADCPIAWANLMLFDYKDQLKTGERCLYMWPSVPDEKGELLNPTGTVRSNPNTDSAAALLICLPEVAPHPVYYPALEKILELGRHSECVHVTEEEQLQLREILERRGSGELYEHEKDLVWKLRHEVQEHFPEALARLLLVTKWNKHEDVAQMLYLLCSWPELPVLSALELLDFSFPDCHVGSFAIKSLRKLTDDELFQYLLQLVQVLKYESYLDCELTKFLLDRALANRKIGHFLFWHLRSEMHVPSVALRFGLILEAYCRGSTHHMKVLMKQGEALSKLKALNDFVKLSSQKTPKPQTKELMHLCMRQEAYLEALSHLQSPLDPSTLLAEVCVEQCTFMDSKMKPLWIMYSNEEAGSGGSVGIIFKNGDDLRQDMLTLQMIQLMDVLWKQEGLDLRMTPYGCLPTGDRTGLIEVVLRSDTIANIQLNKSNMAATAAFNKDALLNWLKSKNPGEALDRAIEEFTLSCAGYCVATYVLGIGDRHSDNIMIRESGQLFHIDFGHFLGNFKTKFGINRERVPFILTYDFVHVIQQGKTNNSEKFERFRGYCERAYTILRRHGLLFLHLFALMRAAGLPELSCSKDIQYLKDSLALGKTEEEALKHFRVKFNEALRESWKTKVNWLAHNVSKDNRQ

CN1CCC(CNc2ccc3ncc(C(=O)Nc4cccc(OC(F)(F)F)c4)n3n2)CC1 [Cpd 2]
remaining binding at 1 µM (FLT3): 92% | remaining binding at 1 µM (PHKG2): 89% | remaining binding at 1 µM (ABL1(Y253F)-P): 100% | remaining binding at 1 µM (FLT3(N841I)): 60% | remaining binding at 1 µM (FLT4): 100% | remaining binding at 1 µM (ADCK3): 100% | remaining binding at 1 µM (PIK3CD): 85% | remaining binding at 1 µM (AKT1): 100% | remaining binding at 1 µM (GRK7): 41% | remaining binding at 1 µM (ANKK1): 94% | remaining binding at 1 µM (PIP5K2B): 95% | remaining binding at 1 µM (ASK1): 100% | remaining binding at 1 µM (PKAC-alpha): 99% | remaining binding at 1 µM (BIKE): 83% | remaining binding at 1 µM (IKK-alpha): 97% | remaining binding at 1 µM (IKK-epsilon): 100% | remaining binding at 1 µM (BRSK1): 100% | remaining binding at 1 µM (ITK): 95% | remaining binding at 1 µM (PRKD1): 98% | remaining binding at 1 µM (CDC2L5): 100% | remaining binding at 1 µM (PRP4): 100% | remaining binding at 1 µM (RET(M918T)): 100% | remaining binding at 1 µM (LIMK1): 79% | remaining binding at 1 µM (LIMK2): 99% | remaining binding at 1 µM (ROS1): 91% | remaining binding at 1 µM (CDK7): 70% | remaining binding at 1 µM (MAP3K3): 96% | remaining binding at 1 µM (CHEK2): 95% | remaining binding at 1 µM (MAP4K3): 95% | remaining binding at 1 µM (SgK110): 72% | remaining binding at 1 µM (MELK): 100% | remaining binding at 1 µM (DAPK1): 82% | remaining binding at 1 µM (MKNK1): 86% | remaining binding at 1 µM (DRAK2): 80% | remaining binding at 1 µM (TLK1): 98% | remaining binding at 1 µM (EGFR(G719S)): 100% | remaining binding at 1 µM (TRKC): 70% | remaining binding at 1 µM (NDR1): 89% | remaining binding at 1 µM (EPHA2): 100% | remaining binding at 1 µM (NEK9): 88% | remaining binding at 1 µM (VEGFR2): 100% | remaining binding at 1 µM (ERK1): 100% | remaining binding at 1 µM (YANK2): 100% | remaining binding at 1 µM (PAK6): 98%
